In data set [1] the target is sigma-2 receptor. As to conditions: ref Berardi, read-out: Affinity (Ki) σ2, cited from earlier work.
Data set [2] has as its system caspase-3. The data set is described as follows: Caspase-Glo caspase-3 activity in Panc02 cells. It counts as cell-based, mouse. As to conditions: 200 μM, 5 h; for Caspase-3 activation (in words): compared to DMSO control. As for the experimental part:
Caspase-3 activity was measured in Panc02 cell lines with a Caspase-Glo® Assay Systems (Promega) according to protocol in which the reagent contain luminogenic caspase substrates that cleaved by activated caspase. […] The contents were then mixed using plate shaker for 30 s, and incubated at room temperature for 90 min. Luminescence signal was measured using multi-mode microplate reader (BioTek). Assay was performed in triplicates, and caspase activity was plotted compared cells treated with DMSO as a control.

For data set [3], the system named is MIAPaCa-2 cells. The data set is described as follows: MTT cell viability, MIAPaCa-2. As to conditions: Homo sapiens, MIA PaCa-2, 24 h treatment, viability relative to vehicle. The class given is cell-based. On the procedure:
(§1) Determination of cell growth was performed using the MTT assay at 24 h. On day 1, pancreatic cancer cell lines were plated at a density of 2 × 10^4 cells/well in black clear-bottom 96-well plates for 24 h prior to treatment in a volume of 100 μL. On day 2, the cells were treated for 24 h with the various drugs concentration (1 μM-100 μM). Untreated cells served as a control. The various drug-solvents (EtOH, DMSO) were added in each control to evaluate a possible solvent cytotoxicity. After the established incubation time with drugs (24 h), MTT (0.5 mg/ml) was added to each well, and after 3–4 h incubation at 37 °C, the supernatant was removed. The formazan crystals were solubilized using 100 μl of DMSO/EtOH (1:1) and the absorbance values at 570 and 630 nm were determined on the multi-mode microplate reader (BioTek instruments, Winooski, VT). Different drug concentrations were assayed in triplicates.
(§2) Statistical analyses and data plotting were performed using GraphPad Prism software version 6.03 (San Diego, CA). Results were expressed as mean ± standard error of the mean of at least 3 biological replicates. EC50 values were calculated by curve fitting normalized viability versus drug concentration. Differences in viability, caspase-3 activity, and tumor volume were analyzed using two-way ANOVA to identify differences and confirmed with paired two tailed t-tests. Mann-Whitney test was used to compare the difference in CBC and biochemistry analyses. Kaplan-Meier survival analyses were used to assess differences between treatment groups and were compared using a log-rank test. A p-value < 0.05 was considered significant for all analyses.

Data set [4] is described as follows: Toxicity evaluation on mice not bearing tumor (CBC, serum chemistry, pathology). The class given is in vivo, C57BL/6 mice. As to conditions: for Off-target effects by necropsy and laboratory evaluations: naïve C57BL/6 mice, continuous daily treatment; for Creatinine: control 0.34 ± 0.02; for RBC: control 7.14 ± 0.1; for WBC: control 10.58 ± 0.2; for HGB: control 10.7 ± 0.7; for MCH: control 15 ± 0.54; for BUN: control 27 ± 0.4; for MCHC: control 29.2 ± 1.21; for HCT: control 36.6 ± 0.08; for MCV: control 51.2 ± 0.32; for ALT: control 260 ± 21; for Platelets: control 486 ± 67; for Glucose: control 62 ± 12.5. On the procedure:
[…] Mice from each treatment cohort were assessed for pathologic evaluation (Digestive Diseases Research Core Center at our institution). Blood was collected for complete blood count (CBC) and biochemical analysis (AST, ALT, BUN, total protein, glucose and Cr). Organs were examined grossly and histologically.

For data set [5], the system named is KP02 cells. The data set is described as follows: MTT cell viability, KP02. The class given is cell-based, mouse. The settings on record: Mus musculus, 24 h, 24 h treatment, viability relative to vehicle. As for the experimental part:
as §1, §2

The subject of data set [6] is Panc02 tumors. The data set is described as follows: In vivo tumor growth and survival, Panc02 tumors in C57BL/6 mice. As to conditions: for Effect on tumor volume (in words): daily i.p. treatment, compared to vehicle or gemcitabine. As for the experimental part: In this pre-clinical model, we utilized the Panc02 cell line, which is weakly immunogenic in C57BL/6 mice and aggressive with a subcutaneous inoculum of 1 × 10^5 cells being lethal within 6–8 weeks. In vivo studies with mice were performed to compare the effect of sigma-2 ligands with gemcitabine. Mice treated with vehicle alone (a mixture of 5% DMSO, 5% EtOH, and 10% Cremophor in H2O) served as the control cohort. Female C57BL/6 mice (10 weeks old, National Cancer Institute Laboratories) were injected in the right flank with 200 μL of a single-cell suspension of Panc02 cells in non-supplemented RPMI medium (1 × 10^6 cells per mouse). Treatment began when the mean tumor diameter was ~ 5 mm. […] Tumors were measured three times weekly in two dimensions with a digital caliper, and tumor volumes were calculated by the standard formula of Tumor Volume = Length x Width^2 × 0.5. All mice were euthanized when tumors reached a diameter of 15 mm or had ulcerated.

The subject of data set [7] is Panc-1 cells. In words: MTT cell viability, Panc-1. The settings on record: Homo sapiens, 24 h treatment, viability relative to vehicle. The class given is cell-based. On the procedure: as §1, §2
For data set [8], the system named is BxPC3 cells. In words: MTT cell viability, BxPC3. It counts as cell-based, human. The settings on record: Homo sapiens, BXPC-3, 24 h, 24 h treatment, viability relative to vehicle. As for the experimental part: as §1, §2
The test system of data set [9] is KCKO cells. The data set is described as follows: MTT cell viability, KCKO. The class given is cell-based. The settings on record: Mus musculus, 24 h treatment, viability relative to vehicle. On the procedure:
as §1, §2

The test system of data set [10] is Panc02 cells. In words: MTT cell viability, Panc02. It counts as cell-based. As to conditions: Mus musculus, 24 h treatment, viability relative to vehicle. On the procedure: as §1, §2
In data set [11] the test system is Panc02 cells. In words: ROS interference in cell viability (MTT with antioxidants). It counts as cell-based, mouse. As to conditions: 24 h. As for the experimental part:
The interference of ROS in cell viability was indirectly determined by MTT assay reported above at 24 h. On day 1, Panc02 cells were plated at a density of 2 × 10^4 cells/well in opaque 96-well, clear-bottom plates 24 h prior to treatment. On day 2, cells were treated with the drugs (50 μM) in the presence or absence of α-tocopherol (100 μM) or N-Acetyl-L-cysteine (100 μM). After incubation (24 h) with drugs, MTT assay was performed as above.

In data set [12] the test system is AsPC-1 cells. In words: MTT cell viability, AsPC-1. It counts as cell-based. As to conditions: Homo sapiens, ASPC1, 24 h treatment, viability relative to vehicle. As for the experimental part: as §1, §2
[13] abbreviates: not tumor-bearing C57BL/6 mice, n = 3, daily i.p., 5 days.

Structures are written as SMILES. Like-named read-outs stand apart in the source and are kept apart here.

With `COc1cccc2c(CCCN3CCN(C4CCCCC4)CC3)cccc12` [PB183, 1-Cyclohexyl-4-[3-(5-methoxynaphthalen-1-yl)propyl]-piperazine], the Ki in [1] (et al. 2004 [25]) was 0.00924 µM. For the same molecule, the “Caspase-3 activation (in words)” value in [2] was “little effect”. Moreover, a half-maximal response in [3] (EC50) required 49 µM. Further, the “Off-target effects by necropsy and laboratory evaluations” value (shortened to “Off-target effects”) in data set [4] was “no major off-target effects”. In [4] (setting [13]), the Creatinine was 0.37 ± 0.04 mg/dL, the RBC is 9.24 ± 0.9 10^6/μL, the WBC is 6.42 ± 1.22 10^3/μL and the HGB came out at 14.85 ± 1.35 g/dL. In data set [4] (setting [13]), the MCH is 16.1 ± 0.1 pg, the BUN is reported as 21 ± 2 mg/dL, the MCHC was found to be 30.4 ± 0.7% and the HCT is 48.8 ± 3.3%. For the same molecule, in data set [4] (setting [13]), the MCV is 52.9 ± 1.6 fL, the ALT is 203 ± 34 μ/L and the Platelets was 727.5 ± 65.5 10^3/μL. Also, the AST in [4] (not tumor-bearing C57BL/6 mice, n = 3, daily i.p., 5 days, control 5.6 ± 0.05) is given as 5.4 ± 0.5 μ/L. In data set [5], this molecule gave an EC50 of 97 µM. The “Effect on tumor volume (in words)” value in data set [6] (Panc02 s.c. in female C57BL/6) is listed as “not effective”. The EC50 in data set [7] is greater than 100 µM. For the same molecule, in [8], the EC50 amounted to 100 µM. This molecule returned an EC50 in data set [9] of 51 µM. In [10], this molecule came in with an EC50 of 83 µM. Further, the “Cell death on co-treatment with NAC” value in data set [11] (Panc02 cells, ligand 50 μM with NAC 100 μM) is recorded as “even higher levels of cell death”. The molecule also showed an EC50 in data set [12] greater than 100 µM.

Regarding `COc1cccc2c1CCCC2CCCN1CCN(C2CCCCC2)CC1` (stereo not shown) [PB28, 1-Cyclohexyl-4-[3-(5-methoxy-1,2,3,4-tetrahydronaphthalen-1-yl)propyl] piperazine], in data set [1] (et al. 2009 [26]), the Ki is 0.00068 µM. Besides, in data set [2], the “Caspase-3 activation (in words)” value is recorded as “did not activate at all”. The same molecule registered an EC50 in data set [3] of 51 µM. Moreover, the “Off-target effects” value in [4] was “no major off-target effects”. Also, in [4] (setting [13]), the Creatinine was found to be 0.37 ± 0.04 mg/dL, the RBC is listed as 10.24 ± 0.3 10^6/μL, the WBC is given as 11.11 ± 1.97 10^3/μL and the HGB is 15.65 ± 0.55 g/dL. For the same molecule, in data set [4] (setting [13]), the MCH is listed as 15.3 ± 0.1 pg, the BUN worked out at 32 ± 1 mg/dL, the MCHC came out at 29.3 ± 0.2% and the HCT was 53.4 ± 1.5%. Further, in [4] (setting [13]), the MCV amounted to 52.15 ± 0.05 fL, the Glucose worked out at 92.5 ± 22.5 mg/dL, the ALT is 249 ± 9 μ/L and the Platelets was 643.5 ± 95.5 10^3/μL. The molecule also returned an EC50 in data set [5] greater than 100 µM. In addition, the “Effect on tumor volume (in words)” value in data set [6] (Panc02 s.c. in female C57BL/6) was “decreased tumor volume similar to gemcitabine alone”. Moreover, the “Mean tumor volume following conclusion of treatment” value in [6] (Panc02 s.c. in female C57BL/6, i.p. daily for two weeks (gemcitabine once weekly), vehicle mean = 924 mm^3) was found to be 369 mm^3. The Median survival in data set [6] (Panc02 tumor-bearing C57BL/6 mice, treatment discontinued on day 15, DMSO (vehicle) 23 days) is recorded as 27 days. Moreover, the EC50 in data set [7] is greater than 100 µM. This molecule also yielded an EC50 in data set [8] greater than 100 µM. Moreover, in [9], the midpoint of the response, the EC50, lay at 87 µM. This molecule also yielded an EC50 in [10] of 43 µM. The concentration for a half-maximal effect (EC50) in data set [12] is greater than 100 µM.

For `COc1cccc2c1CCCC2CCCN1CCC(C2CCCCC2)CC1` (stereo not shown) [PB221, 4-Cyclohexyl-1-[3-(5-methoxy-1,2,3,4-tetrahydronaphthalen-1-yl-propyl)]piperidine], the Ki in data set [1] (et al. 2009 [26]) is 0.0188 µM. In [2], the “Increase of caspase-3 activity compared to cells treated with DMSO vehicle” value was 15.7 fold. Also, the response in data set [3] was half-maximal at 50 µM (EC50). Also, the “Off-target effects” value in data set [4] is recorded as “no major off-target effects”. In data set [4] (setting [13]), the Creatinine was determined as 0.35 ± 0.03 mg/dL, the RBC is listed as 9.59 ± 0.71 10^6/μL, the WBC is on record as 8.12 ± 0.14 10^3/μL and the HGB is 14.7 ± 0.8 g/dL. In [4] (setting [13]), this molecule yielded an MCH of 15.35 ± 0.35 pg, a BUN of 30.5 ± 3.5 mg/dL, an MCHC of 29.25 ± 0.55% and an HCT of 50.35 ± 3.75%. In [4] (setting [13]), the MCV came to 52.5 ± 0.02 fL, the Glucose worked out at 64.5 ± 7.5 mg/dL, the ALT came to 219 ± 5 μ/L and the Platelets was 563 ± 17 10^3/μL. In data set [5], the EC50 was greater than 100 µM. Further, in data set [6] (Panc02 s.c. in female C57BL/6), the “Effect on tumor volume (in words)” value is reported as “did not confer a significantly different tumor volume than vehicle alone”. For the same molecule, in data set [7], the EC50 was greater than 100 µM. This molecule gave an EC50 in [8] of 100 µM. A half-maximal response in data set [9] (EC50) required 19 µM. In data set [10], it took 37 µM to reach a half-maximal effect (EC50). The molecule further showed an EC50 in data set [12] greater than 100 µM.

On to `CC(=O)N[C@@H](CS)C(=O)O` [N-acetyl-L-cysteine (NAC), N-Acetyl-L-cysteine, reference compound], for which the “Protection against sigma-2 ligand induced cell death (Panc02 viability)” value in data set [11] (antioxidant 100 μM one hour prior to sigma-2 ligands 50 μM) is “did not”.

As a reminder, the Ki is the equilibrium dissociation constant of an inhibitor or competing ligand from its target. Broadly, the EC50 is the concentration needed to bring the measured effect to its halfway point. A high value points to a less potent agent.

The record behind these values is publication PMC5237291, “Sigma-2 receptor agonist derivatives of 1-Cyclohexyl-4-[3-(5-methoxy-1,2,3,4-tetrahydronaphthalen-1-yl)propyl]piperazine (PB28) induce cell death via mitochondrial superoxide production and caspase activation in pancreatic cancer” (BMC Cancer, 2017).
